# Source: patent US9486447B2, “Compositions and methods for controlling neuronal excitation” (The General Hospital Corporation, priority 2011, dated 2016)
# “And” between values parts separate entries of the source, which are not always exact repeats. Equal entries are not always repeated.
# How the values were obtained:
# Assay in all cases: NIMH PDSP binding assay
# Conditions in all cases: primary screening, mean of N = 4 determinations
# GABAA = tested on: GABAA
# From the text: (§1) To determine if optovin's mechanism of action could be predicted via behavioral profiling^30,32, optovin's behavioral profile was compared to the behavioral profiles of 700 annotated neuroactive compounds tested in triplicate. These compounds include ligands targeting the adrenergic, serotonergic, histaminergic, dopaminergic, cholinergic and glutamatergic pathways. […] To gain insight into optovin's mechanism of action, optovin and two active optovin analogs were profiled using the National Institutes of Mental Health Psychoactive Drug Screening Program (NIMH PDSP) to determine their activities against a panel of human and rodent CNS receptors, channels and transporters.
# (§2) Activity determinations were generously provided by the National Institute of Mental Health's Psychoactive Drug Screening Program, Contract # HHSN-271-2008-00025-C(NIMH PDSP). Complete assay details are found on-line at: http://pdsp.med.unc.edu/UNC-CH %20Protocol %20Book.pdf
# Alpha1A = Alpha1A (Homo sapiens, UniProt P35348)
# From the text: as §1, §2
# Sigma 1 = tested on: Sigma 1
# From the text: as §1, §2
# 5-HT1A = 5-HT1A (Homo sapiens, UniProt P08908)
# Sequence of 5-HT1A (P08908 whole entry, species assumed): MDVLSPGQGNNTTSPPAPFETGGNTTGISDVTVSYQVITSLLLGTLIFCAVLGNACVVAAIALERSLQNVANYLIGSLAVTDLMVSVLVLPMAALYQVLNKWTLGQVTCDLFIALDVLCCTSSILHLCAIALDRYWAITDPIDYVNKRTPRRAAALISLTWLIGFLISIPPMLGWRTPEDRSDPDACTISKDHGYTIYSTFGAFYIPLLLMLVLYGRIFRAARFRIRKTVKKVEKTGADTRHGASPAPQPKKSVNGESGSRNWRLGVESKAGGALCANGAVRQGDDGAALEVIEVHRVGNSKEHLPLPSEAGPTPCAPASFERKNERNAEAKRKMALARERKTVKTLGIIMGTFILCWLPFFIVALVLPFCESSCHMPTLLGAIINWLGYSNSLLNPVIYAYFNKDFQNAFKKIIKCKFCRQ
# From the text: as §1, §2
# Alpha2A = Alpha2A (Homo sapiens, UniProt P08913)
# Sequence of Alpha2A (P08913 whole entry): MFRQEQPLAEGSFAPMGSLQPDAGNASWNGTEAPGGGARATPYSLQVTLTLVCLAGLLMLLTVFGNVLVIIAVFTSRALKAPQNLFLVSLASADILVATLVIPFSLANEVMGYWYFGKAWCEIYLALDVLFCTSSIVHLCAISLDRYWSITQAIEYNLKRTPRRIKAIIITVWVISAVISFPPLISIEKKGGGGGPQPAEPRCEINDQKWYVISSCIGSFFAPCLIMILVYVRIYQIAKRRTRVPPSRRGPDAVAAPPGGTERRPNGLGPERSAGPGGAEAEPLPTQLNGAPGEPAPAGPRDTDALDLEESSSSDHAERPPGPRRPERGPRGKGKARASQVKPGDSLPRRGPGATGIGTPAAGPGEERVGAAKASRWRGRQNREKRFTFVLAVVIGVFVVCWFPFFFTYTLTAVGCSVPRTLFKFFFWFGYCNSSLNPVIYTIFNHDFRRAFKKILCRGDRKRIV
# From the text: as §1, §2
# 5-HT1D = 5-HT1D (Homo sapiens, UniProt P28221)
# From the text: as §1, §2
# Alpha1D = Alpha1D (Homo sapiens, UniProt P25100)
# From the text: as §1, §2
# 5-HT2A = 5-HT2A (Homo sapiens, UniProt P28223)
# From the text: as §1, §2
# D2 = target: T1, D2 (Homo sapiens, UniProt P14416)
# T1 construct: NIMH PDSP
# T1 sequence (P14416 whole entry): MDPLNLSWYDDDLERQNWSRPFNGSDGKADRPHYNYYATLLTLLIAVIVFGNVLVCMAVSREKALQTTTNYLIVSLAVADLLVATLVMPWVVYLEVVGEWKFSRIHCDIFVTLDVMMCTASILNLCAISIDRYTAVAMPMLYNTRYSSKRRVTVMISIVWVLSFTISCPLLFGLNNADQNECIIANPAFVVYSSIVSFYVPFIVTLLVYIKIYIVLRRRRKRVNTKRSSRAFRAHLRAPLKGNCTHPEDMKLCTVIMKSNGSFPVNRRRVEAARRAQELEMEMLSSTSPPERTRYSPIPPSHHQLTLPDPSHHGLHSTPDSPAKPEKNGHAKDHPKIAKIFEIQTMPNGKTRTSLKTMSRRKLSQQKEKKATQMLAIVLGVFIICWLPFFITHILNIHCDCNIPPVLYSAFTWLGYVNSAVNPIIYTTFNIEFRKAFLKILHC
# From the text: as §1, §2
# PBR = PBR (Rattus norvegicus, UniProt P16257)
# From the text: as §1, §2
# Alpha2B = Alpha2B (Homo sapiens, UniProt P18089)
# From the text: as §1, §2
# A4B2 = A4B2 (Rattus norvegicus, UniProt P09483+P12390)
# Sequence of A4B2 (P09483 31-630): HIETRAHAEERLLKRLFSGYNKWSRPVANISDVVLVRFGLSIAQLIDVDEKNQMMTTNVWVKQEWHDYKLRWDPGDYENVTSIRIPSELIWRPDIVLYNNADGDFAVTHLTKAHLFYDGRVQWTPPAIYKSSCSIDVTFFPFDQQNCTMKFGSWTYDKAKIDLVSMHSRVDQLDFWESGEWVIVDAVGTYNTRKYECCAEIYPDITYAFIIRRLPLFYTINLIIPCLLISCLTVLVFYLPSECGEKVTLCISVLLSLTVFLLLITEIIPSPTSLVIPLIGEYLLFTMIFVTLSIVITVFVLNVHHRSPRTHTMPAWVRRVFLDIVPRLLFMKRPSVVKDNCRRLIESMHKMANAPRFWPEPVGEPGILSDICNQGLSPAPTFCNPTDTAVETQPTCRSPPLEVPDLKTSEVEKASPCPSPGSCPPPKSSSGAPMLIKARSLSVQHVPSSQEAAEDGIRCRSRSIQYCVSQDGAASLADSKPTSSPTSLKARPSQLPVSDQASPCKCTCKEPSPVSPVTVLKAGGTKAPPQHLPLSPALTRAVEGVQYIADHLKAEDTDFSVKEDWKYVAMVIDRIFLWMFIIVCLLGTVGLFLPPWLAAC
# Sequence of A4B2 (P12390 25-500): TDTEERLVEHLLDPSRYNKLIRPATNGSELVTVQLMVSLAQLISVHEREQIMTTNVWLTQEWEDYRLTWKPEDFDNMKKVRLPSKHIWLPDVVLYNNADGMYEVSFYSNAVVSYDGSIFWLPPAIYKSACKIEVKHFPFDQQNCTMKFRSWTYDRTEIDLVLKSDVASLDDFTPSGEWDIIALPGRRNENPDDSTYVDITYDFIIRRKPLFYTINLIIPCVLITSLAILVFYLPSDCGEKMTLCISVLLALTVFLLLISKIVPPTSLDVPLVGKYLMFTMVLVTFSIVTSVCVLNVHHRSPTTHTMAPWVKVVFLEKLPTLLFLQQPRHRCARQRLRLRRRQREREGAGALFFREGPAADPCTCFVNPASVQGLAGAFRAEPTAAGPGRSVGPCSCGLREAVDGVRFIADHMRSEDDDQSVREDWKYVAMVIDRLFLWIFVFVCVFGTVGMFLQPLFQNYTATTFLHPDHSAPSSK
# From the text: as §1, §2
# D5 = target: T2, D5 (Homo sapiens, UniProt P21918)
# T2 construct: NIMH PDSP
# From the text: as §1, §2
# Beta1 = target: T3, Beta1 (Homo sapiens, UniProt P08588)
# T3 construct: NIMH PDSP
# From the text: as §1, §2
# MOR = target: T4, MOR (Homo sapiens, UniProt P35372)
# T4 construct: NIMH PDSP
# From the text: as §1, §2
# DOR = target: T5, DOR (Homo sapiens, UniProt P41143)
# T5 construct: NIMH PDSP
# From the text: as §1, §2
# A2B4 = A2B4 (Rattus norvegicus, UniProt P12389+P12392)
# From the text: as §1, §2
# A2B2 = A2B2 (Rattus norvegicus, UniProt P12389+P12390)
# From the text: as §1, §2
# 5-HT3 = 5-HT3 (Homo sapiens, UniProt P46098)
# From the text: as §1, §2
# Beta2 = target: T6, Beta2 (Homo sapiens, UniProt P07550)
# T6 construct: NIMH PDSP
# T6 sequence (P07550 whole entry): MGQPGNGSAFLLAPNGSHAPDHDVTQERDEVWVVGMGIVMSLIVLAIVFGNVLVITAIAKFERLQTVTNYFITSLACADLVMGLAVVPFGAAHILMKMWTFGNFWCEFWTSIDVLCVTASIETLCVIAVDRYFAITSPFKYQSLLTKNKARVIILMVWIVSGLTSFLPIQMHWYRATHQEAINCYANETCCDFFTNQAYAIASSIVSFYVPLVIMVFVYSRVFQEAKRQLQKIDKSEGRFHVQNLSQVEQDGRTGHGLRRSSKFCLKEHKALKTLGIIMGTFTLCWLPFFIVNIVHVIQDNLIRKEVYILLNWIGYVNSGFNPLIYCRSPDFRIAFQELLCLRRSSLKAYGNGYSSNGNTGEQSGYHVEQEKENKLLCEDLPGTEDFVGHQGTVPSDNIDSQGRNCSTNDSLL
# From the text: as §1, §2
# A3B4 = A3B4 (Rattus norvegicus, UniProt P04757+P12392)
# From the text: as §1, §2
# 5-ht5a = 5-ht5a (Homo sapiens, UniProt P47898)
# From the text: as §1, §2
# M1 = target: T7, M1 (Homo sapiens, UniProt P11229)
# T7 construct: NIMH PDSP
# T7 sequence (P11229 whole entry): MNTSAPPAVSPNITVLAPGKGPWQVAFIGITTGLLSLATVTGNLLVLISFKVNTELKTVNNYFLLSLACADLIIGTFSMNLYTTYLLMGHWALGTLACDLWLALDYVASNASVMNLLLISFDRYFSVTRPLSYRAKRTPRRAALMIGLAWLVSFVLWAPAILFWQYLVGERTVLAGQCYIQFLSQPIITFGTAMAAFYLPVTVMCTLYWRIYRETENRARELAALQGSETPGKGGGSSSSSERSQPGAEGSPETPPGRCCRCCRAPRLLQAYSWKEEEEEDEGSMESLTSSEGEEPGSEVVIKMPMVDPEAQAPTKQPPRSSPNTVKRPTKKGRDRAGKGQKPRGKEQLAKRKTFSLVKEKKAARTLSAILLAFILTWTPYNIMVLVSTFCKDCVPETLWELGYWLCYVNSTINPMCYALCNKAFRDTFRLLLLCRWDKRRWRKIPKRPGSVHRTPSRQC
# From the text: as §1, §2
# D3 = target: T8, D3 (Homo sapiens, UniProt P35462)
# T8 construct: NIMH PDSP
# T8 sequence (P35462 whole entry): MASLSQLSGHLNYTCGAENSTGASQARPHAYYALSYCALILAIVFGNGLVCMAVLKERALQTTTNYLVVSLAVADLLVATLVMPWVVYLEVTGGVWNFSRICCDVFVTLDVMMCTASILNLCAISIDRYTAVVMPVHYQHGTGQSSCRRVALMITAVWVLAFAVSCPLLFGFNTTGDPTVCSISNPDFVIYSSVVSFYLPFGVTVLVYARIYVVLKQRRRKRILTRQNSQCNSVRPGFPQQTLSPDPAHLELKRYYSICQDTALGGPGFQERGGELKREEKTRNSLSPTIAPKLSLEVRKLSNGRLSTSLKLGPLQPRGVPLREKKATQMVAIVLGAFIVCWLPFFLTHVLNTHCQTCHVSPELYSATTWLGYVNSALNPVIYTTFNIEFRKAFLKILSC
# From the text: as §1, §2
# 5-HT2B = 5-HT2B (Homo sapiens, UniProt P41595)
# From the text: as §1, §2
# 5-HT1B = 5-HT1B (Homo sapiens, UniProt P28222)
# From the text: as §1, §2
# D4 = target: T9, D4 (Homo sapiens, UniProt P21917)
# T9 construct: NIMH PDSP
# From the text: as §1, §2
# SERT = target: T10, SERT (Homo sapiens, UniProt P31645)
# T10 construct: NIMH PDSP
# From the text: as §1, §2
# D1 = target: T11, D1 (Homo sapiens, UniProt P21728)
# T11 construct: NIMH PDSP
# T11 sequence (P21728 whole entry): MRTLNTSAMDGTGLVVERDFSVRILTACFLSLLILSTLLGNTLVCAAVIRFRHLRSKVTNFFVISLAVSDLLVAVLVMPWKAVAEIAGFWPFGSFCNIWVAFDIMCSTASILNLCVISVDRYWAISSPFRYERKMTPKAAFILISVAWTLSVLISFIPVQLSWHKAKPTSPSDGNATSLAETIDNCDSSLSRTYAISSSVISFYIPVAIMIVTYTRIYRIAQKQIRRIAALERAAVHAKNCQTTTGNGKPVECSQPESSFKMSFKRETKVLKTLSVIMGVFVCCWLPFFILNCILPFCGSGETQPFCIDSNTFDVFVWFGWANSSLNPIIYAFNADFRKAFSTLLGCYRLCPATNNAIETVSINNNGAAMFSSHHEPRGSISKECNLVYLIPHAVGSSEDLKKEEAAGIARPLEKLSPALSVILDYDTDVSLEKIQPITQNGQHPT
# From the text: as §1, §2
# DAT = target: T12, DAT (Homo sapiens, UniProt Q01959)
# T12 construct: NIMH PDSP
# From the text: as §1, §2
# H2 = target: T13, H2 (Homo sapiens, UniProt P25021)
# T13 construct: NIMH PDSP
# T13 sequence (P25021 whole entry): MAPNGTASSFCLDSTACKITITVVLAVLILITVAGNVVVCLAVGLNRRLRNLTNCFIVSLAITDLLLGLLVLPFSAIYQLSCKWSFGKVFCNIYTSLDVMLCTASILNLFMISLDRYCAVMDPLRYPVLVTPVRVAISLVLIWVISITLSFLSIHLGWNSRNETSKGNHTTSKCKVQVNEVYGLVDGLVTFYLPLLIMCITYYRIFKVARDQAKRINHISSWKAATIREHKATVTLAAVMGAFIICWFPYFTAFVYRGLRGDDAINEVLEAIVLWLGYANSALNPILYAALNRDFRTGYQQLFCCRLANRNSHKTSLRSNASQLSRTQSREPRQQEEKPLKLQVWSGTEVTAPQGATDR
# From the text: as §1, §2
# A4B4 = A4B4 (Rattus norvegicus, UniProt P09483+P12392)
# From the text: as §1, §2
# H1 = target: T14, H1 (Homo sapiens, UniProt P35367)
# T14 construct: NIMH PDSP
# From the text: as §1, §2
# BZP Rat Brain Site = tested on: BZP Rat Brain Site
# From the text: as §1, §2
# 5-HT2C = 5-HT2C (Homo sapiens, UniProt P28335)
# From the text: as §1, §2
# A3B2 = A3B2 (Rattus norvegicus, UniProt P04757+P12390)
# From the text: as §1, §2
# M5 = target: T15, M5 (Homo sapiens, UniProt P08912)
# T15 construct: NIMH PDSP
# From the text: as §1, §2
# Beta3 = target: T16, Beta3 (Homo sapiens, UniProt P13945)
# T16 construct: NIMH PDSP
# From the text: as §1, §2
# M2 = target: T17, M2 (Homo sapiens, UniProt P08172)
# T17 construct: NIMH PDSP
# From the text: as §1, §2
# 5-HT7 = 5-HT7 (Homo sapiens, UniProt P34969)
# Sequence of 5-HT7 (P34969 whole entry, species assumed): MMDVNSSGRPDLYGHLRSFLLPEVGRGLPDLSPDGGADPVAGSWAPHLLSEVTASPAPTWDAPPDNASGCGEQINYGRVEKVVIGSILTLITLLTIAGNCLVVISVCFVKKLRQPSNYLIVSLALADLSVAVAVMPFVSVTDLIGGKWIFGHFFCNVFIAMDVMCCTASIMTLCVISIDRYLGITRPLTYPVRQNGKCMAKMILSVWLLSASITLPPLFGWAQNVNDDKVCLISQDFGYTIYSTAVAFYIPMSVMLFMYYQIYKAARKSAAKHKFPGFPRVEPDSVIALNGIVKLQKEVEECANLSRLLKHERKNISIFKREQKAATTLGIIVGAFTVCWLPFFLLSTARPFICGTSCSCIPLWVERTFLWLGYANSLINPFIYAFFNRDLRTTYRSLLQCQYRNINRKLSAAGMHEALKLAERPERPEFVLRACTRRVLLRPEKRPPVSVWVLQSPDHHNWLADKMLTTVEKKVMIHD
# From the text: as §1, §2
smiles,measurement,setting,value
Cc1cc(/C=C2/SC(=S)NC2=O)c(C)n1-c1cccnc1 [optovin],Avg % inhibition (GABAA),GABAA,−2.2%
same,Avg % inhibition (Alpha1A),Alpha1A,−5.4%
same,Avg % inhibition (Sigma 1),Sigma 1,−13.7%
same,Avg % inhibition (5-HT1A),5-HT1A,6.7%
same,Avg % inhibition (Alpha2A),Alpha2A,40.5%
same,Avg % inhibition (5-HT1D),5-HT1D,12.9%
same,Avg % inhibition (Alpha1D),Alpha1D,30.4%
same,Avg % inhibition (5-HT2A),5-HT2A,−1.1%
same,Avg % inhibition (D2),D2,−6.8%
same,Avg % inhibition (PBR),PBR,−11.3%
same,Avg % inhibition (Alpha2B),Alpha2B,8.9%
same,Avg % inhibition (A4B2),A4B2,−26.8%
same,Avg % inhibition (A4B2**),A4B2,−29.1%
same,Avg % inhibition (D5),D5,13.6%
same,Avg % inhibition (Beta1),Beta1,19.4%
same,Avg % inhibition (MOR),MOR,−0.7%
same,Avg % inhibition (DOR),DOR,−7.2%
same,Avg % inhibition (A2B4),A2B4,−7.8%
same,Avg % inhibition (A2B2),A2B2,−19.2%
same,Avg % inhibition (5-HT3),5-HT3,−1.7%
same,Avg % inhibition (Beta2),Beta2,−3.8%
same,Avg % inhibition (A3B4),A3B4,−12.5%
same,Avg % inhibition (5-ht5a),5-ht5a,−17.7%
same,Avg % inhibition (M1),M1,32.9% and 16.9%
same,Avg % inhibition (D3),D3,34.3%
same,Avg % inhibition (5-HT2B),5-HT2B,−2.0%
same,Avg % inhibition (5-HT1B),5-HT1B,11.8%
same,Avg % inhibition (D4),D4,0.2%
same,Avg % inhibition (SERT),SERT,75.8%
same,Avg % inhibition (D1),D1,9.0%
same,Avg % inhibition (DAT),DAT,1.5%
same,Avg % inhibition (H2),H2,41.1%
same,Avg % inhibition (A4B4),A4B4,−8.8%
same,Avg % inhibition (H1),H1,1.1%
same,Avg % inhibition (BZP Rat Brain Site),BZP Rat Brain Site,5.3%
same,Avg % inhibition (5-HT2C),5-HT2C,7.0%
same,Avg % inhibition (A3B2),A3B2,−5.6%
same,Avg % inhibition (M5),M5,3.7%
same,Avg % inhibition (Beta3),Beta3,20.2%
same,Avg % inhibition (M2),M2,6.6%
same,Avg % inhibition (5-HT7),5-HT7,−0.8%
